Measured values reported in patent US20240228535A1 (priority 2022, published 2024).

What follows are compounds tested against SARS2 coronavirus 3CL protease (Severe acute respiratory syndrome coronavirus 2, UniProt P0DTD1) (assay: biochemical). Details: 5 nM enzyme, 30 min pre-incubation with compound, 15 μM peptide substrate, 4 h at room temperature; read-out: FRET Potency (nM); IC50 values in the SARS2 3CLPro FRET assay.

| Compound | IC50 [nM] |
| --- | --- |
| CNC(=O)C(=O)[C@H](C[C@@H]1C[C@@H](C)NC1=O)NC(=O)c1cc(Cl)ccc1NC(=O)c1cccc(C(F)(F)F)n1 [Example 26, N-[4-chloro-2-[[(1S)-3-(methylamino)-1-[[(3S,5R)-5-methyl-2-oxo-pyrrolidin-3-yl]methyl]-2,3-dioxo-propyl]carbamoyl]phenyl]-6-(trifluoromethyl)pyridine-2-carboxamide] | 17.4 |
| C[C@@H]1C[C@@H](C[C@H](NC(=O)c2cc(Cl)cnc2NC(=O)C23CC(F)(C2)C3)C(=O)C(=O)NC2CC2)C(=O)N1 [Example 27, 5-chloro-N-[(1S)-3-(cyclopropylamino)-1-[[(3S,5R)-5-methyl-2-oxo-pyrrolidin-3-yl]methyl]-2,3-dioxo-propyl]-2-[(3-fluorobicyclo[1.1.1]pentane-1-carbonyl)amino]pyridine-3-carboxamide] | 13.6 |
| CNC(=O)C(=O)[C@H](C[C@@H]1C[C@@H](C)NC1=O)NC(=O)c1cc(F)cnc1NC(=O)c1cccc(C(F)(F)F)c1 [Example 28, 5-fluoro-N-[(1S)-3-(methylamino)-1-[[(3S,5R)-5-methyl-2-oxo-pyrrolidin-3-yl]methyl]-2,3-dioxo-propyl]-2-[[3-(trifluoromethyl)benzoyl]amino]pyridine-3-carboxamide] | 13.2 |
| O=C(CCC(F)(F)F)Nc1ccc(Cl)cc1C(=O)N[C@@H](C[C@@H]1CCNC1=O)C(=O)C(=O)NC1CC1 [Example 29, 5-chloro-N-[(1S)-3-(cyclopropylamino)-2,3-dioxo-1-[[(3S)-2-oxopyrrolidin-3-yl]methyl]propyl]-2-(4,4,4-trifluorobutanoylamino) benzamide] | 13.1 |
| O=C(NC1CC1)C(=O)[C@H](C[C@@H]1CCNC1=O)NC(=O)c1cc(Cl)ccc1NC(=O)C12CC(F)(C1)C2 [Example 30, N-[4-chloro-2-[[(1S)-3-(cyclopropylamino)-2,3-dioxo-1-[[(3S)-2-oxopyrrolidin-3-yl]methyl]propyl]carbamoyl]phenyl]-3-fluoro-bicyclo[1.1.1]pentane-1-carboxamide] | 12.9 |
| CNC(=O)C(=O)[C@H](C[C@@H]1C[C@@H](C)NC1=O)NC(=O)c1cc(Cl)ccc1NC(=O)OC(C)C [Example 31, isopropyl N-[4-chloro-2-[[(1S)-3-(methylamino)-1-[[(3S,5R)-5-methyl-2-oxo-pyrrolidin-3-yl]methyl]-2,3-dioxo-propyl]carbamoyl]phenyl] carbamate] | 12.4 |
| C[C@@H]1C[C@@H](C[C@H](NC(=O)c2cc(C#N)ccc2NC(=O)c2cccc(F)c2)C(=O)C(=O)NC2CC2)C(=O)N1 [Example 32, 5-cyano-N-[(1S)-3-(cyclopropylamino)-1-[[(3S,5R)-5-methyl-2-oxo-pyrrolidin-3-yl]methyl]-2,3-dioxo-propyl]-2-[(3-fluorobenzoyl)amino] benzamide] | 12.3 |
| C[C@@H]1C[C@@H](C[C@H](NC(=O)c2cc(Cl)c(F)cc2NC(=O)C2(C(F)(F)F)CC2)C(=O)C(=O)NC2CC2)C(=O)N1 [Example 33, 5-chloro-N-[(1S)-3-(cyclopropylamino)-1-[[(3S,5R)-5-methyl-2-oxo-pyrrolidin-3-yl]methyl]-2,3-dioxo-propyl]-4-fluoro-2-[[1-(trifluoromethyl)cyclopropane-carbonyl]amino]benzamide] | 12.2 |
| CNC(=O)C(=O)[C@H](C[C@@H]1C[C@@H](C)NC1=O)NC(=O)c1cc(Cl)ccc1NC(=O)C1(C(F)(F)F)CC1 [Example 34, 5-chloro-N-[(1S)-3-(methylamino)-1-[[(3S,5R)-5-methyl-2-oxo-pyrrolidin-3-yl]methyl]-2,3-dioxo-propyl]-2-[[1-(trifluoromethyl)cyclopropane-carbonyl]amino]benzamide] | 11.2 |
| C[C@@H]1C[C@@H](C[C@H](NC(=O)c2cc(Cl)ccc2NC(=O)C2(C(F)(F)F)CCC2)C(=O)C(=O)NC2CC2)C(=O)N1 [Example 35, 5-chloro-N-[(1S)-3-(cyclopropylamino)-1-[[(3S,5R)-5-methyl-2-oxo-pyrrolidin-3-yl]methyl]-2,3-dioxo-propyl]-2-[[1-(trifluoromethyl)cyclobutanecarbonyl]amino]benzamide] | 11.1 |
| O=C(NC1CC1)C(=O)[C@H](C[C@@H]1CCNC1=O)NC(=O)c1cc(Cl)ccc1NC(=O)C1(CC(F)(F)F)CC1 [Example 36, 5-chloro-N-[(1S)-3-(cyclopropylamino)-2,3-dioxo-1-[[(3S)-2-oxopyrrolidin-3-yl]methyl]propyl]-2-[[1-(2,2,2-trifluoroethyl)cyclopropane-carbonyl]amino]benzamide] | 10.7 |
| O=C(NC1CC1)C(=O)[C@H](C[C@@H]1CCNC1=O)NC(=O)c1cc(Cl)ccc1NC(=O)C12CC(F)(C1)C2 [Example 37, N-[4-chloro-2-[[(1S)-3-(cyclopropylamino)-2,3-dioxo-1-[[(3S)-2-oxopyrrolidin-3-yl]methyl]propyl]carbamoyl]phenyl]-3-fluoro-bicyclo[1.1.1]pentane-1-carboxamide] | 10.7 |
| O=C(CC(F)(F)F)Nc1ccc(Cl)cc1C(=O)N[C@@H](C[C@@H]1CCNC1=O)C(=O)C(=O)NC1CC1 [Example 38, 5-chloro-N-[(1S)-3-(cyclopropylamino)-2,3-dioxo-1-[[(3S)-2-oxopyrrolidin-3-yl]methyl]propyl]-2-(3,3,3-trifluoropropanoylamino) benzamide] | 10.5 |
| C[C@@H]1C[C@@H](C[C@H](NC(=O)c2cc(Cl)cnc2NC(=O)C2CCC(F)(F)CC2)C(=O)C(=O)NC2CC2)C(=O)N1 [Example 39, 5-chloro-N-[(1S)-3-(cyclopropylamino)-1-[[(3S,5R)-5-methyl-2-oxo-pyrrolidin-3-yl]methyl]-2,3-dioxo-propyl]-2-[(4,4-difluorocyclohexanecarbonyl)amino]pyridine-3-carboxamide] | 10.3 |
| C[C@@H]1C[C@@H](C[C@H](NC(=O)c2cc(Cl)ccc2NC(=O)c2cccc(C(F)(F)F)n2)C(=O)C(=O)NC2CC2)C(=O)N1 [Example 40] | 10 |
| CNC(=O)C(=O)[C@H](C[C@@H]1C[C@@H](C(F)(F)F)NC1=O)NC(=O)c1cc(Cl)ccc1NC(=O)C1CC(F)(F)C1 [Example 41, 5-chloro-2-[(3,3-difluorocyclobutanecarbonyl)amino]-N-[(1S)-3-(methylamino)-2,3-dioxo-1-[[(3R,5S)-2-oxo-5-(trifluoromethyl)pyrrolidin-3-yl]methyl]propyl]benzamide] | 9.9 |
| C[C@@H]1C[C@@H](C[C@H](NC(=O)c2cc(Cl)ccc2NC(=O)CC(F)(F)F)C(=O)C(=O)NC2CC2)C(=O)N1 [Example 42, 5-chloro-N-[(1S)-3-(cyclopropylamino)-1-[[(3S,5R)-5-methyl-2-oxo-pyrrolidin-3-yl]methyl]-2,3-dioxo-propyl]-2-(3,3,3-trifluoropropanoylamino) benzamide] | 9.8 |
| CNC(=O)C(=O)[C@H](C[C@@H]1C[C@@H](C(F)(F)F)NC1=O)NC(=O)c1cc(Cl)cnc1NC(=O)c1cccc(C(F)(F)F)c1 [Example 43, 5-chloro-N-[(1S)-3-(methylamino)-2,3-dioxo-1-[[(3R,5S)-2-oxo-5-(trifluoromethyl)pyrrolidin-3-yl]methyl]propyl]-2-[[3-(trifluoromethyl)benzoyl]amino]pyridine-3-carboxamide] | 9.6 |
| C[C@@H]1C[C@@H](C[C@H](NC(=O)c2cc(C(F)F)ccc2NC(=O)c2cccc(C(F)(F)F)c2)C(=O)C(=O)NC2CC2)C(=O)N1 [Example 44, N-[(1S)-3-(cyclopropylamino)-1-[[(3S,5R)-5-methyl-2-oxo-pyrrolidin-3-yl]methyl]-2,3-dioxo-propyl]-5-(difluoromethyl)-2-[[3-(trifluoromethyl)benzoyl]amino]benzamide] | 9.4 |
| CNC(=O)C(=O)[C@H](C[C@@H]1C[C@@H](C)NC1=O)NC(=O)c1cc(Cl)ccc1NC(=O)c1cccc(C(F)(F)F)c1 [Example 45, 5-chloro-N-[(1S)-3-(methylamino)-1-[[(3S,5R)-5-methyl-2-oxo-pyrrolidin-3-yl]methyl]-2,3-dioxo-propyl]-2-[[3-(trifluoromethyl)benzoyl]amino]benzamide] | 9.4 |
| CNC(=O)C(=O)[C@H](C[C@@H]1C[C@@H](C)NC1=O)NC(=O)c1cc(Cl)ccc1NC(=O)C12CC(C(F)(F)F)(C1)C2 [Example 46, N-[4-chloro-2-[[(1S)-3-(methylamino)-1-[[(3S,5R)-5-methyl-2-oxo-pyrrolidin-3-yl]methyl]-2,3-dioxo-propyl]carbamoyl]phenyl]-3-(trifluoromethyl)bicyclo[1.1.1] pentane-1-carboxamide] | 8.9 |
| CNC(=O)C(=O)[C@H](C[C@@H]1CCNC1=O)NC(=O)c1cc(Cl)ccc1NC(=O)C12CC(F)(C1)C2 [Example 47] | 8.8 |
| C[C@@H]1C[C@@H](C[C@H](NC(=O)c2cc(Cl)ccc2NC(=O)c2cccc(C(F)(F)F)c2)C(=O)C(N)=O)C(=O)N1 [Example 48, N-[(1S)-3-amino-1-[[(3S,5R)-5-methyl-2-oxo-pyrrolidin-3-yl]methyl]-2,3-dioxo-propyl]-5-chloro-2-[[3-(trifluoromethyl)benzoyl]amino]benzamide] | 8.8 |
| C[C@@H]1C[C@@H](C[C@H](NC(=O)c2cc(F)c(F)cc2NC(=O)c2ccnc(C(F)(F)F)c2)C(=O)C(=O)NC2CC2)C(=O)N1 [Example 49, N-[2-[[(1S)-3-(cyclopropylamino)-1-[[(3S,5R)-5-methyl-2-oxo-pyrrolidin-3-yl]methyl]-2,3-dioxo-propyl]carbamoyl]-4,5-difluoro-phenyl]-2-(trifluoromethyl)pyridine-4-carboxamide] | 8.8 |
| CNC(=O)C(=O)[C@H](C[C@@H]1C[C@@H](C)NC1=O)NC(=O)c1cc(Cl)cnc1NC(=O)C12CC(F)(C1)C2 [Example 50, 5-chloro-2-[(3-fluorobicyclo[1.1.1]pentane-1-carbonyl)amino]-N-[(1S)-3-(methylamino)-1-[[(3S,5R)-5-methyl-2-oxo-pyrrolidin-3-yl]methyl]-2,3-dioxo-propyl]pyridine-3-carboxamide] | 8.7 |
